From patent US12338199B2, “Bis-octahydrophenanthrene carboxamides and protein conjugates thereof” (REGENERON PHARMACEUTICALS, INC., priority 2017, dated 2025)
Counter-ions that a name gives are not always drawn. Like-named read-outs stand apart in the source and are kept apart here.

What was measured:
LXR beta = target: T1, LXR beta (Homo sapiens, UniProt P55055); experiment: LanthaScreen TR-FRET LXR beta Coactivator Assay (cell-free binding)
T1 construct: LXR alpha or beta LBD-GST; purchased ThermoFisher PV4658
T1 sequence (P55055 222-460 limits assumed): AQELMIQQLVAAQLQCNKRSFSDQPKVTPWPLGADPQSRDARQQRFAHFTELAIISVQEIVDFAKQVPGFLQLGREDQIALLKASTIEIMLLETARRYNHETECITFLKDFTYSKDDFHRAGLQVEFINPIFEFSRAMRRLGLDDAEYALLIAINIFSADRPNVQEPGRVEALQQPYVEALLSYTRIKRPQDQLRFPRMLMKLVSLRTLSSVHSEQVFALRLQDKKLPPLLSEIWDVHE
Protocol: (§1) To evaluate the ability of novel LXR agonists to bind to the LXR alpha and beta receptor, a cell-free binding assay was performed using a LanthaScreen TR-FRET LXR alpha Coactivator Assay Kit (ThermoFisher, Cat # PV4655) and LXR beta Coactivator Assay Kit (ThermoFisher, Cat # PV4658). The assay was performed according to the manufacturer's instructions. Briefly, a 3-fold serial dilution of LXR agonists were prepared in 100% DMSO starting at 100 μM (100× of final). Serial dilutions were further diluted 50-fold in nuclear receptor buffer F with 5 mM DTT, and transferred to a 384-well assay plate. Next, Fluorescein-D22, LXR alpha or beta LBD-GST, and Tb anti-GST antibody was sequentially added to 384-well assay plate. The plate was then incubated at rt for 2.5 hours while being protected from light. […] The IC50 values were determined using a four-parameter logistic equation over a 12-point response curve (GraphPad Prism).

THP1/LXR-Luc/Her2 cells = experiment: THP1/LXR-Luc/Her2 luciferase reporter bioassay; assay type: cell-based; conditions: Homo sapiens
Text: (§2) A bioassay was developed to assess the activity of LXR agonists after internalization of an agonist or of a ncADC into cells and binding to LXR, a nuclear receptor, using a commercially available LXR reporter (referred to as LXR-Luc) that contains the firefly luciferase gene under control by minimal CMV promoter and tandem repeats of the LXR transcriptional response element. For this assay, a THP1 cell line, which is a human monocytic leukaemia line, was engineered to express full length human Her2 (expressing amino acids M1 through V1255 of accession number NP_004439.2). The subsequent stable cell line was further transduced with a Cignal LXR Luc Reporter (Qiagen, Cat # CLS-7041L). The resulting stable cell line is referred to herein as THP1/Her2/LXR-Luc. The Her2 cell surface expression on THP1/Her2/LXR-Luc cell line was confirmed by FACS (data not shown).
(§3) This example assessed the ability of the LXR agonists provided herein, reference compounds, and anti-Her2 antibody-LXR ncADC to activate LXR. The samples were tested in the THP1/LXR-Luc/Her2 bioassay. For the assay, either THP1/LXR-Luc cells or THP1/LXR-Luc/Her2 cells were seeded onto white 96 well plates at 30,000 cells/well in media containing RPMI supplemented with 10% FBS and pencillin/streptomycin (complete media). Subsequently 3-fold serial dilutions of antibody drug conjugates, unconjugated antibodies, or free payloads were added to the cells at final concentration ranging from 100 nM to 0.01 nM. After 48-hour or 72-hour incubation, luciferase activity was determined after the addition of One-Glo™ reagent (Promega, Cat # E6130) to each well of cells. Relative light units (RLUs) were measured on a Victor luminometer (PerkinElmer) and the EC5o values were determined using a four-parameter logistic equation over a 10-point dose response curve (GraphPad Prism) (FIG. 15). The fold activation is calculated based on the maximum activation of the free payload 9d.

THP1/LXR-Luc cells [1] = experiment: LXR-luciferase reporter bioassay in PMA-differentiated THP1/LXR-Luc cells; assay type: cell-based, human; conditions: for EC50: Homo sapiens, THP-1, 48 h, read-out: EC50; for S/N (signal to noise, ratio of RLU of standard one over RLU of standard eight): luciferase activity
Text: To test the efficacy of anti-MSR1 antibody-LXR conjugates in vitro, a cell-based LXR responsive luciferase reporter assay was developed. To generate the assay cell line, a LXR regulated luciferase reporter gene [Cignal Lenti LXR Reporter (luc) kit (Qiagen, Cat # CLS-001L)] was transduced into THP1 cells, and cells were selected for two weeks in puromycin. The lentivirus expresses the firefly luciferase gene under the control of a minimal CMV promoter and tandem repeats of the LXR transcriptional response element. The resulting cell line is referred to as THP1/LXR-Luc cells.
THP1/LXR-Luc cells were seeded onto 96 well plates at 40,000 cells/well in media containing RPMI supplemented with 10% FBS and pencillin/streptomycin and subsequently differentiated with 200 nM Phorbol Myristate Acetate (PMA) for 3 days. After the 3-day differentiation period, three-fold serial dilutions of antibody drug conjugates, unconjugated antibodies, or free payloads in fresh media were added to the cells at final concentration ranging from 100 nM to 0.01 nM. Media alone served as a blank control. Forty-eight hours later, luciferase activity was determined after the addition of One-Glo™ reagent (Promega, Cat # E6130) to each well. Relative light units (RLUs) were measured on a Victor luminometer (PerkinElmer) and EC50 values were determined using a four-parameter logistic equation over a 10-point dose response curve (GraphPad Prism). The signal to noise (S/N) was determined by calculating the ratio of RLU of standard one over RLU of standard eight for each of the unconjugated anti-MSR1 antibodies or free payloads. “LP #” represents a linker-payload for which the corresponding structures are provided elsewhere herein, and “P #” represents a payload for which the corresponding structures are provided elsewhere herein.

LXR alpha = target: T2, LXR alpha (Homo sapiens, UniProt Q13133); experiment: LanthaScreen TR-FRET LXR alpha Coactivator Assay (cell-free binding)
T2 construct: LXR alpha or beta LBD-GST; purchased ThermoFisher PV4655
T2 sequence (Q13133 209-447 limits assumed): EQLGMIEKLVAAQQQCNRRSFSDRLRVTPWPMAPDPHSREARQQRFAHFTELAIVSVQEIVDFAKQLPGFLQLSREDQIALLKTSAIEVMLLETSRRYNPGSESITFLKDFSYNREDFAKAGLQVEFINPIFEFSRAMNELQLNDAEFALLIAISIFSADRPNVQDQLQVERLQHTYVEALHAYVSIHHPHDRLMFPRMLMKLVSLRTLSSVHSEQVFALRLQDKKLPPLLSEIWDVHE
Protocol: as §1

THP1/LXR-Luc cells [2] = experiment: THP1/LXR-Luc luciferase reporter bioassay; assay type: cell-based; conditions: Homo sapiens, THP-1, 48 hours; for EC50: read-out: Activation of THP1/LXR-Luc cells: EC50; for Emax: relative to maximum activation of free payload 9d, read-out: Activation of THP1/LXR-Luc cells: Fold of activation
Text: The fold activation in the cell-based assays (as described in Example 68, below) was defined based on the maximum activation of the free payload 9d.
as §2
Additionally, a THP1 cell line was transduced with a Cignal LXR Luc Reporter (Qiagen, Cat # CLS-7041L) without the addition of Her2. The resulting stable cell line is referred to herein as THP1/LXR-Luc. All of the antibodies used in the subsequent bioassays were assessed for their ability to internalize and release a payload on the bioassay cell line used.
as §3

[3] = Water solubility and pH stability of phosphate analogs; assay type: physicochemical; conditions: pH as given in the value; 17c converted to 17b in the presence of methanol
Text: The phosphoric acid-analog 17a was obtained from the treatment of phenol 9g with diphosphoryl chloride 18. Compounds 17b and 17c were obtained from the acidic deprotection of 17a with TFA.

[4] = TR-FRET, 12-point curve, read-out: Cell free binding LXRβ IC50
[5] = 48-hour time point, stimulation of THP1/Luc cells
[6] = PMA-differentiated THP1/LXR-Luc cells, 48 hours, luciferase activity (One-Glo), 10-point dose response 100 nM to 0.01 nM
[7] = PMA-differentiated THP1/LXR-Luc cells, 48 hours
[8] = TR-FRET, 12-point curve, read-out: Cell free binding LXRα IC50

SMILES | IC50 (LXR beta; [4]) [nM] | EC50 (THP1/LXR-Luc/Her2 cells; THP-1, 48 h, 48-hour time point) [nM] | EC50 (THP1/LXR-Luc/Her2 cells; THP-1, 48 h, 48 hours, unit inferred, values correspond to M) [nM] | EC50 (THP1/LXR-Luc/Her2 cells; THP-1, 72 h, 72-hour time point) [nM] | EC50 (THP1/LXR-Luc/Her2 cells; THP-1, 72 h, 72 hours) [nM] | EC50 (THP1/LXR-Luc cells [1]; [5]) [nM] | EC50 (THP1/LXR-Luc cells [1]; [6]) [nM] | S/N (signal to noise, ratio of RLU of standard one over RLU of standard eight) (THP1/LXR-Luc cells [1]; [7]) | IC50 (LXR alpha; [8]) [nM] | EC50 (THP1/LXR-Luc cells [2]) [nM] | Emax (THP1/LXR-Luc cells [2]) [%] | Stability [3] | IC50 (LXR beta) [nM] | IC50 (LXR alpha) [nM]
C[C@]1(C(=O)NC(=O)[C@@]2(C)CCC[C@]3(C)c4cc(NC(=O)[C@@H](N)CO)ccc4CC[C@@H]23)CCC[C@]2(C)c3cc(O)ccc3CC[C@@H]12 [Compound 9j, (1S,4aS,10aR)-6-((S)-2-Amino-3-hydroxypropanamido)-N-((1S,4aS,10aR)-6-hydroxy-1,4a-dimethyl-1,2,3,4,4a,9,10,10a-octahydrophenanthrene-1-carbonyl)-1,4a-dimethyl-1,2,3,4,4a,9,10,10a-octahydrophenanthrene-1-carboxamide] | < 10 | 0.39 | 0.39 | 0.47 | 0.47 | 0.37 to 2.09 | 0.46 | 5.7 | < 10 | ≤ 1 | > 75 | – | – | –
C[C@]1(C(=O)NC(=O)[C@@]2(C)CCC[C@]3(C)c4cc(NC(=O)[C@@H](N)CCCCN)ccc4CC[C@@H]23)CCC[C@]2(C)c3cc(O)ccc3CC[C@@H]12 [Compound 9l, (1S,4aS,10aR)—N-[(1S,4aS,10aR)-6-Hydroxy-1,4a-dimethyl-1,2,3,4,4a,9,10,10a-octahydrophenanthrene-1-carbonyl]-6-[(2S)-2,6-diaminohexanamido]-1,4a-dimethyl-1,2,3,4,4a,9,10,10a-octahydrophenanthrene-1-carboxamide; Trifluoroacetic Acid Salt] | 10 to 100 | – | – | – | – | 0.37 to 2.09 | 2.09 | 8.9 | 10 to 100 | 1 to 10 | > 75 | – | – | –
C[C@]1(C(=O)NC(=O)[C@@]2(C)CCC[C@]3(C)c4cc(NC(=O)[C@@H](N)CCC(=O)O)ccc4CC[C@@H]23)CCC[C@]2(C)c3cc(O)ccc3CC[C@@H]12 [Compound 9o, (4S)-4-Amino-4-{[(4bS,8S,8aR)-8-{[(1S,4aS,10aR)-6-hydroxy-1,4a-dimethyl-1,2,3,4,4a,9,10,10a-octahydrophenanthrene-1-carbonyl]carbamoyl}-4b,8-dimethyl-4b,5,6,7,8,8a,9,10-octahydrophenanthren-3-yl]carbamoyl}butanoic acid; Trifluoroacetic Acid Salt] | < 10 | – | – | – | – | 0.37 to 2.09 | 0.37 | 8.3 | 10 to 100 | ≤ 1 | > 75 | – | – | –
C[C@]1(C(=O)NC(=O)[C@@]2(C)CCC[C@]3(C)c4cc(NC(=O)CCCC(=O)O)ccc4CC[C@@H]23)CCC[C@]2(C)c3cc(O)ccc3CC[C@@H]12 [Compound 9q, 4-{[(4bS,8S,8aR)-8-{[(1S,4aS,10aR)-6-Hydroxy-1,4a-dimethyl-1,2,3,4,4a,9,10,10a-octahydrophenanthrene-1-carbonyl]carbamoyl}-4b,8-dimethyl-4b,5,6,7,8,8a,9,10-octahydrophenanthren-3-yl]carbamoyl}butanoic Acid] | < 10 | – | – | – | – | – | – | – | < 10 | 10 to 100 | > 75 | – | – | –
C[C@]1(C(=O)NC(=O)[C@@]2(C)CCC[C@]3(C)c4cc(NC(=O)CNCC(=O)O)ccc4CC[C@@H]23)CCC[C@]2(C)c3cc(O)ccc3CC[C@@H]12 [Compound 9r, 2-[({[(4bS,8S,8aR)-8-{[(1S,4aS,10aR)-6-Hydroxy-1,4a-dimethyl-1,2,3,4,4a,9,10,10a-octahydrophenanthrene-1-carbonyl]carbamoyl}-4b,8-dimethyl-4b,5,6,7,8,8a,9,10-octahydrophenanthren-3-yl]carbamoyl}methyl)amino]acetic Acid; Trifluoroacetic Acid Salt] | < 10 | – | – | – | – | – | – | – | < 10 | 10 to 100 | > 75 | – | – | –
COP(=O)(O)Oc1ccc2c(c1)[C@@]1(C)CCC[C@](C)(C(=O)NC(=O)[C@@]3(C)CCC[C@]4(C)c5cc(N)ccc5CC[C@@H]34)[C@@H]1CC2 [Compound 17b, (4bS,8S,8aR)-8-((1S,4aS,10aR)-6-Amino-1,4a-dimethyl-1,2,3,4,4a,9,10,10a-octahydrophenanthrene-1-carbonylcarbamoyl)-4b,8-dimethyl-4b,5,6,7,8,8a,9,10-octahydrophenanthren-3-yl methyl hydrogen phosphate] | – | – | – | – | – | – | – | – | – | 10 to 100 | > 75 | stable at pH 5-8 | < 10 | 10 to 100
O=C(O)Cc1cccc(OCCCN(Cc2cccc(C(F)(F)F)c2Cl)CC(c2ccccc2)c2ccccc2)c1 [GW3965] | < 10 | – | – | – | – | – | – | – | < 10 | > 100 | > 75 | – | – | –
